This note sets out measurements from patent publication US10273237B2, “Imidazopyridazine compounds useful as modulators of IL-12, IL-23 and/or IFN-α responses” (BRISTOL-MYERS SQUIBB COMPANY, priority 2013, dated 2019).

Assay [1] concerns IL-23-stimulated Kit225 T cells with STAT-dependent luciferase reporter. The assay is described as follows: Kit225 T cell assay, STAT-dependent luciferase reporter, IL-23 stimulated. Format: cell-based, human. Conditions: Homo sapiens, KIT225, 20 ng/mL human recombinant IL-23, 5-6 hours, read-out: IL-23 Kit225 Reporter, LE (IC50). Put shortly: (§1)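 Kit225 T cells carrying a stably integrated STAT-dependent luciferase reporter, in RPMI with 10% heat-inactivated FBS, stimulated with 20 ng/mL human recombinant IL-23 or 200 U/mL human recombinant IFNα for 5-6 h. Luciferase expression read by Steady-Glo luminescence.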

In assay [2] the test system is IFNα-stimulated Kit225 T cells with STAT-dependent luciferase reporter. The assay is described as follows: Kit225 T cell assay, STAT-dependent luciferase reporter, IFNα stimulated. Format: cell-based, human. Particulars: Homo sapiens, KIT225, 200 U/mL human recombinant IFNα, 5-6 hours, read-out: IFNa Kit225 Reporter, LE (IC50). In outline:
as §1

For assay [3], the target named is T1, His-tagged protein corresponding to amino acids 575-869 of human Tyk2 (Homo sapiens, UniProt P29597).
T1 construct: made in house
T1 sequence (P29597 with tags, fused parts or gaps): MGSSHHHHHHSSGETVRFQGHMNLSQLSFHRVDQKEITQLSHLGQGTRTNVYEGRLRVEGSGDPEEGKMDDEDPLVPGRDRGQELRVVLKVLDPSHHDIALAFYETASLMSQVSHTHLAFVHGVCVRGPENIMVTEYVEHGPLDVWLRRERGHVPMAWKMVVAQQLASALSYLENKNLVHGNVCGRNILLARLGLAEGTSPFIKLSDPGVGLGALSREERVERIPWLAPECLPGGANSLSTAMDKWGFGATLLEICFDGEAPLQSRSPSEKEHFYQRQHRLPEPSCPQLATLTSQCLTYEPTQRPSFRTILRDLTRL
In words: Probe displacement assay (scintillation proximity, radiolabeled probe). In kind it is binding. Particulars: 2.5 nM Tyk2 (575-869), 40 nM [3H] probe, 30 minutes at room temperature. As for the experimental part:
The preparation of radiolabeled probe, (R)—N-(1-(3-(8-methyl-5-(methylamino)-8H-imidazo[4,5-d]thiazolo[5,4-b]pyridin-2-yl)phenyl)ethyl)-2-([^3H]methylsulfonyl)benzamide, was performed as described below: […]

As for `CNc1cc(Nc2cccn(-c3cnc(C)cn3)c2=O)nn2c(C(=O)NCC(C)(C)CO)cnc12` [Example 6, N-(3-Hydroxy-2,2-dimethylpropyl)-8-(methylamino)-6-((1-(5-methylpyrazin-2-yl)-2-oxo-1,2-dihydropyridin-3-yl)amino)imidazo[1,2-b]pyridazine-3-carboxamide], the 50% inhibitory concentration (IC50) in assay [1] stood at 70 nM; in assay [2] it was 140 nM. In assay [3], this compound came in with an EC50 of 15 nM.
For the compound `CNc1cc(Nc2cccn(-c3ccc(C#N)cc3)c2=O)nn2c(C(=O)NCC(C)(C)CO)cnc12` [Example 25], the concentration for half-maximal inhibition (IC50) in assay [1] is 200 nM; in assay [2], 100 nM. The EC50 in assay [3] amounted to 16 nM.
For the compound `CNc1cc(Nc2cccn(-c3ccccn3)c2=O)nn2c(C(=O)NC3CC3)cnc12` [Example 32], the 50% inhibitory concentration (IC50) was 220 nM in assay [1] and 80 nM in assay [2]. This compound registered an EC50 in assay [3] of 27 nM.
With `CNc1cc(Nc2cccn(-c3nccs3)c2=O)nn2c(C(=O)NC3CC3)cnc12` [Example 35], the IC50 was determined as 20 nM in assay [1] and 50 nM in assay [2]. In assay [3], a half-maximal response (EC50) required 5 nM.
The like results for `CNc1cc(Nc2cccn(-c3cccc(F)n3)c2=O)nn2c(C(=O)N[C@@H]3CCOC3)cnc12` [Example 61] were, in that order, 210 nM, 180 nM and 20 nM.
For `CNc1cc(Nc2cccn(-c3ccc(C)nn3)c2=O)nn2c(C(=O)NC3CC3)cnc12` [Example 63], the IC50 turned out to be 140 nM in assay [1] and 110 nM in assay [2]. This compound also yielded a concentration for a half-maximal effect (EC50) in assay [3] of 7 nM.
For the compound `CC[C@@H](C)NC(=O)c1cnc2c(NC)cc(Nc3cccn(-c4ccccn4)c3=O)nn12` [Example 74], the IC50 in assay [1] was 170 nM; in assay [2], 110 nM. For the same compound, the EC50 in assay [3] was 9 nM.
On to `CC[C@@H](C)NC(=O)c1cnc2c(NC)cc(Nc3cccn(-c4ccn(C)n4)c3=O)nn12` [Example 79], for which the IC50 in assay [1] turned out to be 140 nM; in assay [2] it was 30 nM. It took 6 nM to reach a half-maximal effect in assay [3] (EC50).
For `CNc1cc(Nc2cccn(-c3ncc(C)cn3)c2=O)nn2c(C(=O)N[C@@H]3C[C@@H]3F)cnc12` [Example 83], the results for the IC50 in assay [1] and in assay [2] were 200 nM and 120 nM, respectively. This compound also showed an EC50 in assay [3] of 2 nM.
With `CNc1cc(Nc2cccn(-c3cccc(C(C)O)n3)c2=O)nn2c(C(=O)NC3CC3)cnc12` (stereo not drawn) [Example 85], the IC50 in assay [1] turned out to be 340 nM; in assay [2], 110 nM. This compound also showed a concentration giving a half-maximal response (EC50) in assay [3] of 5 nM.
The like results for `CNc1cc(Nc2cccn(-c3cccc(C(C)O)n3)c2=O)nn2c(C(=O)NC3CCC3)cnc12` (stereo not drawn) [Example 86] were, in that order, 30 nM, 30 nM and 6 nM.
The like results for `CNc1cc(Nc2cc(F)cn(-c3ccc(C)nn3)c2=O)nn2c(C(=O)NC3CCC3)cnc12` [Example 93] were, in that order, 90 nM, 30 nM and 12 nM.
For the compound `CNc1cc(Nc2cccn(-c3ccccn3)c2=O)nn2c(C(=O)NCCF)cnc12` [Example 101], the figures for the IC50 in assay [1] and in assay [2] were 140 nM and 170 nM, respectively. Also, the midpoint of the response in assay [3], the EC50, lay at 12 nM.
For the compound `CNc1cc(Nc2cccn(-c3cccnn3)c2=O)nn2c(C(=O)NC(C)C)cnc12` [Example 106], the IC50 in assay [1] came out at 180 nM; in assay [2], 160 nM. Moreover, the midpoint of the response in assay [3], the EC50, lay at 13 nM.
`CNc1cc(Nc2cc(F)cn(CCOC)c2=O)nn2c(C(=O)NC3CC3)cnc12` [Example 118]: the IC50 in assay [1] worked out at 270 nM; in assay [2] it was 150 nM. In addition, in assay [3], a half-maximal response (EC50) required 18 nM.
The like results for `CNc1cc(Nc2cccn(-c3ccc(C(F)F)cc3)c2=O)nn2c(C(=O)NCC(C)(C)CO)cnc12` [Example 124] were, in that order, 150 nM, 80 nM and 4 nM.
On to `CNc1cc(Nc2cccn(-c3cccc(C#N)c3)c2=O)nn2c(C(=O)NC3CC3)cnc12` [Example 126], for which the figures for the IC50 in assay [1] and in assay [2] were 300 nM and 190 nM, respectively. In addition, in assay [3], the EC50 came out at 8 nM.
As to `CNc1cc(Nc2cccn(-c3ccc(C(F)(F)F)cc3)c2=O)nn2c(C(=O)NCC(C)(CO)CO)cnc12` [Example 132], the IC50 was 400 nM in assay [1] and 320 nM in assay [2]. In assay [3], this compound gave a half-maximal effective concentration (EC50) of 14 nM.
As for `CNc1cc(Nc2cccn(-c3ccc(C(F)(F)F)cc3)c2=O)nn2c(C(=O)NCC3(CO)CC3)cnc12` [Example 133], the IC50 is 430 nM in assay [1] and 200 nM in assay [2]. The response in assay [3] was half-maximal at 19 nM (EC50).
Turning to `CNc1cc(Nc2cccn(-c3ccc(C(F)(F)F)cc3)c2=O)nn2c(C(=O)NCC(C)(C)CO)cnc12` [Example 136], the IC50 turned out to be 170 nM in assay [1] and 80 nM in assay [2]. In assay [3], this compound had an EC50 of 11 nM.
Regarding `CNc1cc(Nc2cccn(-c3ccc(N4CCOCC4)cc3)c2=O)nn2c(C(=O)NC3(C#N)CC3)cnc12` [Example 140], the results for the IC50 in assay [1] and in assay [2] were 190 nM and 150 nM, respectively. In assay [3], this compound had an EC50 of 14 nM.
The like results for `CNc1cc(Nc2cccn(-c3cccc(F)n3)c2=O)nn2c(C(=O)N[C@@H]3C[C@@H]3F)cnc12` [Example 145] were, in that order, 30 nM, 10 nM and 5 nM.
Consider `CNc1cc(Nc2cccn(-c3cc(C)n(C)n3)c2=O)nn2c(C(=O)NC3CCC3)cnc12` [Example 155], for which the concentration for half-maximal inhibition (IC50) worked out at 30 nM in assay [1] and 20 nM in assay [2]. Also, the EC50 in assay [3] came out at 7 nM.
For `CNc1cc(Nc2cccn(C3(C)CC3)c2=O)nn2c(C(=O)NCC(C)(C)CO)cnc12` [Example 163], the IC50 in assay [1] was 240 nM; in assay [2] it was 70 nM. In assay [3], this compound registered an EC50 of 8 nM.
With `CNc1cc(Nc2ccnn(-c3ccccc3)c2=O)nn2c(C(=O)N[C@@H]3C[C@@H]3F)cnc12` [Example 180], the IC50 stood at 50 nM in assay [1] and 20 nM in assay [2]. In assay [3], the response was half-maximal at 17 nM (EC50).
Turning to `CCC(CC)CNC(=O)c1cnc2c(NC)cc(Nc3cccn(-c4ccccc4)c3=O)nn12` [Example 187], the IC50 turned out to be 220 nM in assay [1] and 380 nM in assay [2]. Besides, in assay [3], a half-maximal response (EC50) required 29 nM.
Turning to `CNc1cc(Nc2cccn(-c3ccccc3)c2=O)nn2c(C(=O)N[C@H]3CCCC[C@H]3O)cnc12` [Example 188], the IC50 in assay [1] is 70 nM; in assay [2], 230 nM. Further, in assay [3], the midpoint of the response, the EC50, lay at 21 nM.
The like results for `CNc1cc(Nc2cccn(-c3ccccn3)c2=O)nn2c(C(=O)NCc3nccs3)cnc12` [Example 190] were, in that order, 260 nM, 290 nM and 23 nM.
As to `CNc1cc(Nc2cccn(-c3ccccn3)c2=O)nn2c(C(=O)NCC(C)(C)CO)cnc12` [Example 197], the IC50 in assay [1] and in assay [2] was 60 nM in each case. In addition, the EC50 in assay [3] was found to be 16 nM.
With `CNc1cc(Nc2cccn(-c3ccc(S(C)(=O)=O)cc3)c2=O)nn2c(C(=O)NC3CC3)cnc12` [Example 202], the concentration for half-maximal inhibition (IC50) stood at 350 nM in assay [1] and 330 nM in assay [2]. For the same compound, the concentration for a half-maximal effect (EC50) in assay [3] amounted to 8 nM.
For the compound `CNc1cc(Nc2cccn(C)c2=O)nn2c(C(=O)NC(C)(C)C)cnc12` [Example 211], the IC50 in assay [1] was 360 nM; in assay [2], 490 nM. Moreover, in assay [3], it took 57 nM to reach a half-maximal effect (EC50).
As to `CNc1cc(Nc2cccn(C)c2=O)nn2c(C(=O)NCC3CCC3)cnc12` [Example 214], the IC50 in assay [1] turned out to be 360 nM; in assay [2], 810 nM. In assay [3], this compound yielded an EC50 of 73 nM.
For `CNc1cc(Nc2cccn(C3CCN(C(=O)c4ncc[nH]4)CC3)c2=O)nn2c(C(=O)NC3CC3)cnc12` [Example 245], the IC50 is 290 nM in assay [1] and 260 nM in assay [2]. In assay [3], this compound gave an EC50 of 7 nM.
